In US11415579B2, “Assay for measuring a rate of reaction between a target and a ligand candidate” (Imperial College Innovations Ltd., priority 2016, dated 2022):

Tests used:
Cdk2(C177A, F80C) = biological target: T1, Cdk2(C177A, F80C) (Homo sapiens, UniProt P24941, C177A/F80C); experiment: Kinetic thiol consumption assay with Cdk2 mutant F80C, incl. kobs versus concentration (Kd, k2); format: binding; design: key to Rate enhancement, Cdk2 F80C: Cdk2 rate constant divided by model-thiol rate constant; settings: additional mutation C177A; for Rate constant with Cdk2 F80C: Protein: Cdk2, cysteine position F80C, in h^-1
T1 construct: poly-histidine; made in house; host or cells: E. coli
Procedure, shortened: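 His-tagged Cdk2(C177A/F80C) from E. coli or model thiol, 5 μM in degassed phosphate buffer pH 8 with TCEP beads, reacted with acrylamide ligands; fluorescence (ex/em 380/470 nm) normalized to DMSO control and fitted to first-order decay for kobs. Kd and k2 obtained from hyperbolic fit of kobs versus ligand concentration.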

Cdk2(H71C) (C177A) = biological target: T2, Cdk2(H71C) (C177A) (Homo sapiens, UniProt P24941, C177A/H71C); experiment: Kinetic thiol consumption assay with Cdk2 mutant H71C; format: binding; design: key to Rate enhancement, Cdk2 H71C: rate constant with Cdk2 ÷ rate constant with model thiol (fold); settings: additional mutation C177A; for Rate constant with Cdk2 H71C: Protein: Cdk2, cysteine position H71C, in h^-1
T2 construct: poly-histidine; made in house; host or cells: E. coli
Procedure, shortened: (§1)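 His-tagged single-surface-cysteine Cdk2 mutants (C177A background) from E. coli, 5 μM in degassed phosphate buffer pH 8, pre-treated with immobilized TCEP beads. Fluorescence (ex/em 380/470 nm) read after 1 h at room temperature, normalized to DMSO/thiol-only control; first-order decay fits gave rate constants, divided by model-thiol rate for rate enhancement.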

Cdk2(R122C) (C177A) = biological target: T3, Cdk2(R122C) (C177A) (Homo sapiens, UniProt P24941, C177A/R122C); experiment: Kinetic thiol consumption assay with Cdk2 mutant R122C; format: binding; design: key to Rate enhancement, Cdk2 R122C: rate constant with Cdk2 ÷ rate constant with model thiol (fold); settings: additional mutation C177A; for Rate constant with Cdk2 R122C: Protein: Cdk2, cysteine position R122C, in h-1
T3 construct: poly-histidine; made in house; host or cells: E. coli
Procedure, shortened: as §1

Cdk2(S276C) (C177A) = biological target: T4, Cdk2(S276C) (C177A) (Homo sapiens, UniProt P24941, C177A/S276C); experiment: Kinetic thiol consumption assay with Cdk2 mutant S276C; format: binding; design: key to Rate enhancement, Cdk2 S276C: rate constant with Cdk2 ÷ rate constant with model thiol (fold); settings: additional mutation C177A; for Rate constant with Cdk2 S276C: Protein: Cdk2, cysteine position S276C, in h^-1
T4 construct: poly-histidine; made in house; host or cells: E. coli
Procedure, shortened: as §1

Cdk2(S181C) (C177A) = biological target: T5, Cdk2(S181C) (C177A) (Homo sapiens, UniProt P24941, C177A/S181C); experiment: Kinetic thiol consumption assay with Cdk2 mutant S181C; format: binding; design: key to Rate enhancement, Cdk2 S181C: rate constant with Cdk2 ÷ rate constant with model thiol (fold); settings: additional mutation C177A; for Rate constant with Cdk2 S181C: Protein: Cdk2, cysteine position S181C, in h^-1
T5 construct: poly-histidine; made in house; host or cells: E. coli
Procedure, shortened: as §1

[1] = biological target: T6, human cyclin-dependent kinase 2 (Cdk2) (Homo sapiens, UniProt P24941); experiment: Kinetic thiol consumption assay with wild type Cdk2 (C177); format: binding; design: key to Rate enhancement, Cdk2 WT: k(Cdk2) divided by k(model thiol); Rate constant with Cdk2 (k(Cdk2)): unit not given here; settings: for Rate constant with Cdk2 (k(Cdk2)): 500 μM ligand, 5 μM thiol, phosphate buffer pH 8; for Rate enhancement, Cdk2 WT: no additional mutations; for Rate constant with Cdk2 WT: Protein: Cdk2, cysteine position WT, in h^-1; for k(Cdk2)/k(Cdk2_mut) rate enhancement: model thiol Cdk2[C177A, F80C, K278C]; for k(Cdk2)/k(GSH) rate enhancement: model thiol glutathione
T6 construct: poly-histidine; made in house; host or cells: E. coli
Procedure, shortened: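 Rate constants came from first-order exponential decay fits of normalized fluorescence against time, with thiol (5 μM) in degassed pH 8 phosphate buffer containing 2% v/v TCEP beads and reads after 1 h at room temperature.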

Cdk2[C177A, F80C, K278C] = biological target: T7, Cdk2[C177A, F80C, K278C] (Homo sapiens, UniProt P24941, C177A/F80C/K278C); experiment: Kinetic thiol consumption assay with mutant Cdk2 as model thiol; format: binding; design: unit not given here; settings: 500 μM ligand, 5 μM thiol, phosphate buffer pH 8
T7 construct: poly-histidine; made in house; host or cells: E. coli
Procedure, shortened: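 Model thiol: His-tagged human Cdk2 C177A/F80C/K278C (two engineered surface cysteines), E. coli-expressed, 5 μM in degassed phosphate buffer pH 8 with immobilized TCEP beads (2% v/v). Fluorescence (ex/em 380/470 nm) followed over time at room temperature, normalized to DMSO/thiol control. First-order decay fit gives rate constants.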

Cdk2(T182C) (C177A) = biological target: T8, Cdk2(T182C) (C177A) (Homo sapiens, UniProt P24941, C177A/T182C); experiment: Kinetic thiol consumption assay with Cdk2 mutant T182C; format: binding; design: key to Rate enhancement, Cdk2 T182C: rate constant with Cdk2 ÷ rate constant with model thiol (fold); settings: additional mutation C177A; for Rate constant with Cdk2 T182C: Protein: Cdk2, cysteine position T182C, in h^-1
T8 construct: poly-histidine; made in house; host or cells: E. coli
Procedure, shortened: as §1

[2] = Kinetic thiol consumption assay with model thiol glutathione; format: physicochemical; design: Rate constant with glutathione (k(GSH)): unit not given here; settings: for Rate constant with glutathione (k(GSH)): 500 μM ligand, 5 μM thiol, phosphate buffer pH 8; for Rate constant with Glutathione: Protein: Glutathione, cysteine position NA, in h-1
Procedure, shortened: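 First, 5 μM glutathione in degassed phosphate buffer (pH 8) receives immobilized TCEP beads (2% v/v). Then acrylamide is added and plates incubate 1 h at room temperature. Finally, fluorescence (380/470 nm) is normalized and fitted to first-order decay for rate constants.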

Cdk2(N272C) (C177A) = biological target: T9, Cdk2(N272C) (C177A) (Homo sapiens, UniProt P24941, C177A/N272C); experiment: Kinetic thiol consumption assay with Cdk2 mutant N272C; format: binding; design: key to Rate enhancement, Cdk2 N272: rate constant with Cdk2 ÷ rate constant with model thiol (fold); settings: for Rate enhancement, Cdk2 N272: Cdk2 N272, additional mutation C177A; for Rate constant with Cdk2 N272C: Protein: Cdk2, cysteine position N272C, additional mutation C177A, in h^-1
T9 construct: poly-histidine; made in house; host or cells: E. coli
Procedure, shortened: as §1

| SMILES | Rate enhancement, Cdk2 F80C (Cdk2(C177A, F80C)) | Rate enhancement, Cdk2 H71C (Cdk2(H71C) (C177A)) | Rate enhancement, Cdk2 R122C (Cdk2(R122C) (C177A)) | Rate constant with Cdk2 R122C (Cdk2(R122C) (C177A)) | Rate enhancement, Cdk2 S276C (Cdk2(S276C) (C177A)) | Rate constant with Cdk2 S276C (Cdk2(S276C) (C177A)) | Rate enhancement, Cdk2 S181C (Cdk2(S181C) (C177A)) | Rate constant with Cdk2 S181C (Cdk2(S181C) (C177A)) | Rate constant with Cdk2 (k(Cdk2)) [1] | Rate enhancement, Cdk2 WT [1] | Rate constant with Cdk2 WT [1] | k(Cdk2)/k(Cdk2_mut) rate enhancement [1] | k(Cdk2)/k(GSH) rate enhancement [1] | Rate constant with Cdk2[C177A, F80C, K278C] (k(Cdk2_mut)) (Cdk2[C177A, F80C, K278C]) | Rate enhancement, Cdk2 T182C (Cdk2(T182C) (C177A)) | Rate constant with Cdk2 T182C (Cdk2(T182C) (C177A)) | Rate constant with glutathione (k(GSH)) [2] | Rate constant with Glutathione [2] | Rate enhancement, Cdk2 N272 (Cdk2(N272C) (C177A)) | Rate constant with Cdk2 N272C (Cdk2(N272C) (C177A)) | further results |
| --- | --- | --- | --- | --- | --- | --- | --- | --- | --- | --- | --- | --- | --- | --- | --- | --- | --- | --- | --- | --- | --- |
| C=CC(=O)NC1c2ccccc2Oc2ccccc21 [CA-171] | 0 | 0.4785 | 0.2126 | 0.00155 | 0.5204 | 0.003794 | 0.8523 | 0.006213 | 0.00423 | 1.547 | 0.01128 | 3.343 | 1.018 | 0.00127 | 13.51 | 0.09852 | 0.00416 | 0.00729 | 1.029 | 0.007502 | Rate constant with Cdk2 H71C (Cdk2(H71C) (C177A)): 0.003488 |
| C=CC(=O)N1CCCCCC1c1ccc(N(C)C)cc1 (stereo not shown) [EL-1140] | 0.7204 | 0 | 0.3699 | 0.003006 | 0.2024 | 0.001645 | 0.6713 | 0.005455 | 0.00303 | 0.6141 | 0.00499 | 0.7455 | 0.3806 | 0.00407 | 1.338 | 0.01087 | 0.00797 | 0.008126 | 0.1121 | 0.0009109 | Rate constant with Cdk2 F80C (Cdk2(C177A, F80C)): 0.005854 |
| C=CC(=O)N1CCN(c2ccccc2C(N)=O)CC1 [EL-1155] | 0.3142 | 0.4653 | 0.5734 | 0.006445 | 1.346 | 0.01513 | 0.5376 | 0.006043 | 0.00466 | 0.4144 | 0.004658 | 1.221 | 0.5575 | 0.00382 | 2.129 | 0.02393 | 0.00836 | 0.01124 | 1.099 | 0.01235 | Rate constant with Cdk2 F80C (Cdk2(C177A, F80C)): 0.003532; Rate constant with Cdk2 H71C (Cdk2(H71C) (C177A)): 0.00523 |
| C=CC(=O)N1CCC(c2nc3ccccc3[nH]2)CC1 [EL-1152] | 0.816 | 0.6643 | 0.7476 | 0.004438 | 2.027 | 0.01203 | 0.9565 | 0.005678 | 0.00612 | 1.186 | 0.007039 | 1.055 | 1.009 | 0.0058 | 3.834 | 0.02276 | 0.00606 | 0.005936 | 0.326 | 0.001935 | Rate constant with Cdk2 F80C (Cdk2(C177A, F80C)): 0.004844; Rate constant with Cdk2 H71C (Cdk2(H71C) (C177A)): 0.003943 |
| C=CC(=O)N1CCCC1c1ccc(OC)cc1 (stereo not shown) [EL-1062] | 1.223 | 0 | 0.606 | 0.003068 | 0.2765 | 0.0014 | 1.564 | 0.007918 | 0.00448 | 1.245 | 0.006301 | 0.6762 | 0.8802 | 0.00663 | 5.254 | 0.0266 | 0.00509 | 0.005063 | 0.3073 | 0.001556 | Rate constant with Cdk2 F80C (Cdk2(C177A, F80C)): 0.006191 |
| C=CC(=O)NCCNC(=O)c1ccccc1 [CA216] | 18.66 | 1.033 | 0.4256 | 0.001824 | 1.648 | 0.007064 | 0.8854 | 0.003795 | 0.00676 | 3.777 | 0.01619 | 0.356 | 2.66 | 0.01899 | 59.66 | 0.2557 | 0.00254 | 0.004286 | 2.921 | 0.01252 | Rate constant with Cdk2 F80C (Cdk2(C177A, F80C)): 0.07999; Rate constant with Cdk2 H71C (Cdk2(H71C) (C177A)): 0.004427 |
| C=CC(=O)N1CCc2cc(-c3cccc(F)c3)ccc21 [CA-042] | 0.4287 | 0.5064 | 0.1215 | 0.001778 | 0.5636 | 0.008245 | 0.3187 | 0.004663 | 0.04257 | 2.91 | 0.04257 | 0.3151 | 5.157 | 0.1351 | 5.547 | 0.08115 | 0.00825 | 0.01463 | 0.09535 | 0.001395 | Rate constant with Cdk2 F80C (Cdk2(C177A, F80C)): 0.006272; Rate constant with Cdk2 H71C (Cdk2(H71C) (C177A)): 0.007409 |
